The test system of one series is Phakopsora pachyrhizi. As to the kind of experiment: Protective control of soy bean rust on soy beans, inoculation 1 day after spraying (glass house trial 2). In kind it is in vivo. The following applies: 600 ppm, protective (1 day), untreated plants 100% diseased leaf area. The method, then:
(§1) Spray solutions were prepared in several steps. A mixture was prepared of acetone and/or dimethylsulfoxide and the wetting agent/emulsifier Wettol, which is based on ethoxylated alkylphenoles, in a relation (volume) solvent-emulsifier of 99 to 1 was added to 25 mg of the compound to give a total of 5 ml. Water was then added to a total volume of 100 ml. This stock solution was diluted with the described solvent-emulsifier-water mixture to the given concentration.
2. Protective Control of Soy Bean Rust on Soy Beans Caused by Phakopsora pachyrhizi
Leaves of pot-grown soy bean seedlings were sprayed to run-off with an aqueous suspension, containing the concentration of active ingredient or their mixture as described below. The plants were allowed to air-dry. The trial plants were cultivated for 1 day in a greenhouse chamber at 23 to 27° C. and a relative humidity between 60 and 80%.Then the plants were inoculated with spores of Phakopsora pachyrhizi. To ensure the success the artificial inoculation, the plants were transferred to a humid chamber with a relative humidity of about 95% and 20 to 24° C. for 24 hours. The trial plants were cultivated for fourteen days in a greenhouse chamber at 23 to 27° C. and a relative humidity between 60 and 80%. The extent of fungal attack on the leaves was visually assessed as % diseased leaf area.

The test system of another series is Sclerotinia sclerotiorum. In words: Preventative fungicidal control of rape stem rot on soy beans (glass house trial 5). In kind it is in vivo. The following applies: 300 ppm, soy bean, untreated plants 90% diseased leaf area. As to the method:
as §1
5. Preventative Fungicidal Control of Rape Stem Rot on Soy Beans Caused by (Sclerotinia scierotiorum
Young seedlings of soy beans were grown in pots. These plants were sprayed to run-off with an aqueous suspension, containing the concentration of active ingredient or mixture mentioned in the table below. The next day the treated plants were inoculated: Rye and millet grains were infected with Sclerotinia sclerotiorum. After the infection the grains were air dried for a week. The grains were powdered with a mixer. A small amount of powder was brought onto the soy bean (leaves). Then the trial plants were cultivated for 7 days in a greenhouse chamber at 23° C. and a relative humidity between 80 an 85%. The extent of fungal attack on the leaves was visually assessed with a classification method: 0, 33, 50, 67 and 100% disease of leaf area and stem.

The next series concerns Puccinia recondita. In words: Preventative control of brown rust on wheat (glass house trial 6). The series is classed as in vivo. The following applies: 300 ppm, preventative (inoculation 7 days after spraying), untreated plants 100% diseased leaf area. As to the method: as §1
6. Preventative Control of Brown Rust on Wheat Caused by Puccinia recondita
The first two developed leaves of pot-grown wheat seedling were sprayed to run-off with an aqueous suspension, containing the concentration of active ingredient or their mixture as described below. Seven days later the plants were inoculated with spores of Puccinia recondita. To ensure the success the artificial inoculation, the plants were transferred to a humid chamber without light and a relative humidity of 95 to 99% and 20 to 24° C. for 24 hours. Then the trial plants were cultivated for 6 days in a greenhouse chamber at 20 to 24° C. and a relative humidity between 65 and 70%. The extent of fungal attack on the leaves was visually assessed as % diseased leaf area.

For the compound `CN(C(=O)c1ccc(C2=NOC(O)(C(F)(F)F)C2)cc1)c1ccccc1` (centres unmarked) [Ex-2], the diseased leaf area in the series with Phakopsora pachyrhizi and with Sclerotinia sclerotiorum was 0% throughout.

In the case of `O=C(NCc1ccc(C2=NOC(O)(C(F)(F)F)C2)cc1)C1CC1` (centres unmarked) [Ex-4, N-[[4-[5-hydroxy-5-(trifluoromethyl)-4H-isoxazol-3-yl]phenyl]methyl]cyclopropanecarboxamide], the melting point worked out at 207 °C.

`O=C(Nc1ccccc1)c1ccc(C2=NOC(O)(C(F)(F)F)C2)cc1` (centres unmarked) [Ex-7, 4-[5-Hydroxy-5-(trifluoromethyl)-4H-isoxazol-3-yl]-N-phenyl-benzamide] had a melting point of 217 °C.

Regarding `COC1(C(F)(F)F)CC(c2ccc(CN(C)C(=O)C3CC3)cc2)=NO1` (centres unmarked) [Ex-13], in the series on Phakopsora pachyrhizi, the diseased leaf area came to 0%.

For `CN(Cc1ccc(C2=NOC(O[Si](C)(C)C)(C(F)(F)F)C2)cc1)C(=O)C1CC1` (centres unmarked) [Ex-14], the diseased leaf area in the series with Phakopsora pachyrhizi is reported as 0%.

With `CC(=O)OC1(C(F)(F)F)CC(c2ccc(CN(C)C(=O)C3CC3)cc2)=NO1` (centres unmarked) [Ex-15], the figures for the diseased leaf area in the series on Phakopsora pachyrhizi, in the series on Sclerotinia sclerotiorum and with Puccinia recondita were 0%, 0% and 12%, respectively.

`CC(=O)OC1(C(F)(F)F)CC(c2ccc(CNC(=O)C3CC3)cc2)=NO1` (centres unmarked) [Ex-18]: the diseased leaf area with Phakopsora pachyrhizi and in the series with Sclerotinia sclerotiorum was 0% each time.

`COC1(C(F)(F)F)CC(c2ccc(CNC(=O)C3CC3)cc2)=NO1` (centres unmarked) [Ex-19] displayed a diseased leaf area with Phakopsora pachyrhizi of 0%.

`O=C(Nc1ccccc1)c1ccc(C2=NOC(OC(=O)N3CCCC3)(C(F)(F)F)C2)cc1` (centres unmarked) [Ex-26] registered a diseased leaf area in the series on Sclerotinia sclerotiorum of 0%.

Compound `O=C(Nc1ccccc1)c1ccc(C2=NOC(OC(=O)N3CCOCC3)(C(F)(F)F)C2)cc1` (centres unmarked) [Ex-27] registered a diseased leaf area with Sclerotinia sclerotiorum of 0%.

As for `O=C(Nc1ccccc1)c1ccc(C2=NOC(OC(=O)C3CCCO3)(C(F)(F)F)C2)cc1` (centres unmarked) [Ex-28], the diseased leaf area in the series on Phakopsora pachyrhizi and in the series with Sclerotinia sclerotiorum was 0% in each case.

On to `CCOCC(=O)OC1(C(F)(F)F)CC(c2ccc(C(=O)Nc3ccccc3)cc2)=NO1` (centres unmarked) [Ex-30], for which the diseased leaf area with Phakopsora pachyrhizi and with Sclerotinia sclerotiorum was 0% in each case.

The compound `CC(C)CC(=O)OCOC1(C(F)(F)F)CC(c2ccc(C(=O)Nc3ccccc3)cc2)=NO1` (centres unmarked) [Ex-40] displayed a diseased leaf area in the series with Phakopsora pachyrhizi of 0%.

In the case of `CNC(=O)c1ccc(C2=NOC(OC(=O)C3CC3)(C(F)(F)F)C2)cc1` (centres unmarked) [Ex-42], the diseased leaf area with Phakopsora pachyrhizi was determined as 0%.

A word on the melting point: it is the temperature of the solid-liquid transition.
